Results published in patent publication EP4610269A1, “UROKINASE PLASMINOGEN ACTIVATOR SURFACE RECEPTOR (UPAR) LIGANDS FOR DIAGNOSTIC OR THERAPEUTIC USE” (3B Pharmaceuticals GmbH, priority 2024, dated 2025).
*1 amine or outer side, *2 acyl side, *3 side chain or, on linkers, in order; H or OH if unused. Where a SMILES comes first, the peptide text is derived from it. Bridges are numbered along the chain shown (N, C = ends). [ ]: non-standard residue; d: D form. The star is where a group is joined. DOTA = O=C(O)CN1CCN(CC(=O)O)CCN(CC(=O)*)CCN(CC(=O)O)CC1; X8 = O=C(CN(CC(=O)NC(CO)(CO)CO)CC(=O)*)NC(CO)(CO)CO; Pro(trans-4-F) = O=C(O)[C@@H]1C[C@@H](F)CN1; Phe(3-Cl) = N[C@@H](Cc1cccc(Cl)c1)C(=O)O; Pro(cis-4-F) = O=C(O)[C@@H]1C[C@H](F)CN1; Phe(2-Cl) = N[C@@H](Cc1ccccc1Cl)C(=O)O; cisHyp = O=C(O)[C@@H]1C[C@H](O)CN1; Hyp = O=C(O)[C@@H]1C[C@@H](O)CN1; 4Pal = N[C@@H](Cc1ccncc1)C(=O)O; Pentanoyl(4-Me) = CC(C)CCC(=O)*; Cit = NC(=O)NCCC[C@H](N)C(=O)O; Butoxycarbonyl = CCCCOC(=O)*; Chg = N[C@H](C(=O)O)C1CCCCC1; Pen = CC(C)(S)[C@H](N)C(=O)O; Nle = CCCC[C@H](N)C(=O)O; Orn = NCCC[C@H](N)C(=O)O; Api = NC1(C(=O)O)CCNCC1; Dab = NCC[C@H](N)C(=O)O; Nva = CCC[C@H](N)C(=O)O; Pentanoyl = CCCCC(=O)*; CH2 = C([*:1])[*:2]

What was measured:
[1] = target: T1, uPAR-expressing HEC-265 human endometrial adenocarcinoma cells (Homo sapiens, UniProt Q03405); experiment: Competitive FACS binding assay; settings: pIC50 category of FACS binding
T1 construct: Cell surface uPAR-expressing HEC-265 human endometrial adenocarcinoma cells; host or cells: HEC-265
Summary of the method: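 Competitive displacement of a 10 nM biotinylated peptide from HEC-265 cells (1 h, 4 °C, PBS/1% BSA), detected via APC-streptavidin by flow cytometry. pIC50 from four-parameter logistic fit of median fluorescence versus concentration.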

[2] = target: T2, human uPAR (uPAR-Fc) (Homo sapiens, UniProt Q03405); experiment: Surface plasmon resonance (SPR) assay, single cycle kinetics; format: binding; settings: pKD category for uPAR SPR activity assay; uPAR-Fc on Protein A-Chip, 25°C; read-out: pKD CAT (converted)
T2 construct: comprising amino acids Leu23-Arg303 according to UniProt entry Q03405.1; purchased R&D Systems 10378-UK-100
Summary of the method: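 uPAR-Fc (Leu23-Arg303 extracellular domains, human IgG1 Fc) captured on Protein A chip to ~2000 RU; single-cycle kinetics at 25°C in HEPES running buffer pH 7.4 with 0.1% DMSO. KD from double-referenced sensorgrams fitted to 1:1 Langmuir model, reported as pKD.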

T1 sequence (Q03405 23-335): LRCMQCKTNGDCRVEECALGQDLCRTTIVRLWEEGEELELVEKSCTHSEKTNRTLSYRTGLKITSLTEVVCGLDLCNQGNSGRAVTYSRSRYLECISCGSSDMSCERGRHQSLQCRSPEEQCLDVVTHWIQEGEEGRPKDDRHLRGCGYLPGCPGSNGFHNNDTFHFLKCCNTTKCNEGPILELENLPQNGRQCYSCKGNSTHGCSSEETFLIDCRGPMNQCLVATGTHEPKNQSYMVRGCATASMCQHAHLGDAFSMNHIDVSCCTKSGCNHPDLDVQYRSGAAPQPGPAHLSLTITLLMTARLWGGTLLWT
T2 sequence (Q03405 23-303): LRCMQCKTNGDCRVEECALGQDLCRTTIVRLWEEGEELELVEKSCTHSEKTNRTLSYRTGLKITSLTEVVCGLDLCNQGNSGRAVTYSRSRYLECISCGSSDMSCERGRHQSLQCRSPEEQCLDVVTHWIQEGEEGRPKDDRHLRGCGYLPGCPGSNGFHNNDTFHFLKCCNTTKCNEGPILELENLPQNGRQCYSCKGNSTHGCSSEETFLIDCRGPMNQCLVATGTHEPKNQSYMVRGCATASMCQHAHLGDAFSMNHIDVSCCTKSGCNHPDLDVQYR

CCCCC(=O)N[C@H]1CSSC[C@@H](C(N)=O)NC(=O)[C@H](CCC)NC(=O)[C@H]([C@@H](C)CC)NC(=O)[C@@H]2C[C@H](O)CN2C(=O)[C@@H]2CCCN2C(=O)[C@H](Cc2ccccc2)NC(=O)[C@H](Cc2ccc(O)cc2)NC(=O)[C@H](CCCCNC(=O)CN2CCN(CC(=O)O)CCN(CC(=O)O)CCN(CC(=O)O)CC2)NC(=O)[C@H](CCCNC(N)=O)NC1=O [UPAR-214, Pent-[Cys-Cit-Lys(DOTA)-Tyr-Phe-Pro-Chy-Ile-Nva-Cys]-NH2] (Pentanoyl-C[Cit]K(DOTA)YFP[cisHyp]I[Nva]C-NH2; disulfide 1-10)
IC50 [1]: ≤ 0.01 µM | Kd [2]: < 0.00158 µM

CCCCC(=O)N[C@H]1CSCSC[C@@H](C(N)=O)NC(=O)[C@H](CCC)NC(=O)[C@H]([C@@H](C)CC)NC(=O)[C@@H]2C[C@@H](O)CN2C(=O)[C@@H]2CCCN2C(=O)[C@H](Cc2ccccc2)NC(=O)[C@H](Cc2ccc(O)cc2)NC(=O)[C@H](CCC(N)=O)NC(=O)[C@H](CCCNC(N)=O)NC1=O [UPAR-215, Pent-[Smc-Cit-Gln-Tyr-Phe-Pro-Hyp-Ile-Nva-Cys]-NH2] (Pentanoyl-C[Cit]QYFP[Hyp]I[Nva]C-NH2; linker 1-10 via CH2)
IC50 [1]: 0.0126 to 0.0316 µM | Kd [2]: 0.00158 to 0.01 µM

CCCCC(=O)N[C@H]1CSSC(C)(C)[C@@H](C(N)=O)NC(=O)[C@H](CCC)NC(=O)[C@H]([C@@H](C)CC)NC(=O)[C@@H]2C[C@@H](O)CN2C(=O)[C@@H]2CCCN2C(=O)[C@H](Cc2ccccc2)NC(=O)[C@H](Cc2ccc(O)cc2)NC(=O)[C@H](CCC(N)=O)NC(=O)[C@H](CCCNC(N)=O)NC1=O [UPAR-217, Pent-[Cys-Cit-Gln-Tyr-Phe-Pro-Hyp-Ile-Nva-Pen]-NH2] (Pentanoyl-C[Cit]QYFP[Hyp]I[Nva][Pen]-NH2; disulfide 1-10)
IC50 [1]: ≤ 0.01 µM | Kd [2]: 0.00158 to 0.01 µM

CCCC[C@@H]1NC(=O)[C@H](CCCNC(=N)N)NC(=O)[C@@H](NC(=O)[C@H](CC(C)C)NC(=O)[C@H](CC(=O)O)NC(C)=O)CSSC[C@@H](C(N)=O)NC(=O)[C@H](CC(C)C)NC(=O)[C@H]([C@@H](C)CC)NC(=O)[C@H](C)NC(=O)[C@H]2CCCN2C(=O)[C@H](Cc2ccccc2)NC(=O)[C@H](Cc2ccc(O)cc2)NC1=O [UPAR-218, Ac-Asp-Leu-[Cys-Arg-Nle-Tyr-Phe-pro-Ala-Ile-Leu-Cys]-NH2] (Ac-DLCR[Nle]YF[dP]AILC-NH2; disulfide 3-12)
IC50 [1]: ≥ 0.126 µM | Kd [2]: > 0.1 µM

CC[C@H](C)[C@@H]1NC(=O)C2(CCN(C(=O)CN3CCN(CC(=O)O)CCN(CC(=O)O)CCN(CC(=O)O)CC3)CC2)NC(=O)[C@@H]2CCCN2C(=O)[C@H](Cc2ccccc2)NC(=O)[C@H](Cc2ccc(O)cc2)NC(=O)[C@H](CCC(N)=O)NC(=O)[C@H](CCCNC(N)=O)NC(=O)[C@@H](NC(=O)CCC(C)C)CSSC[C@@H](C(N)=O)NC(=O)[C@H](CC(C)C)NC1=O [UPAR-219, iHex-[Cys-Cit-Gln-Tyr-Phe-Pro-Apc(DOTA)-Ile-Leu-Cys]-NH2] ({Pentanoyl(4-Me)}-C[Cit]QYFP[Api](DOTA)ILC-NH2; disulfide 1-10)
IC50 [1]: ≤ 0.01 µM | Kd [2]: 0.00158 to 0.01 µM

CC[C@H](C)[C@@H]1NC(=O)[C@@H]2C[C@@H](F)CN2C(=O)[C@@H]2CCCN2C(=O)[C@H](Cc2ccccc2)NC(=O)[C@H](Cc2ccc(O)cc2)NC(=O)[C@H](CCC(N)=O)NC(=O)[C@H](CCCNC(N)=O)NC(=O)[C@@H](NC(=O)CCC(C)C)CSSC[C@@H](C(N)=O)NC(=O)[C@H](CC(C)C)NC1=O [UPAR-220, iHex-[Cys-Cit-Gln-Tyr-Phe-Pro-4Tfp-Ile-Leu-Cys]-NH2] ({Pentanoyl(4-Me)}-C[Cit]QYFP[Pro(trans-4-F)]ILC-NH2; disulfide 1-10)
IC50 [1]: ≤ 0.01 µM | Kd [2]: < 0.00158 µM

CC[C@H](C)[C@@H]1NC(=O)[C@@H](C)NC(=O)[C@@H]2CCCN2C(=O)[C@H](Cc2ccccc2Cl)NC(=O)[C@H](Cc2ccc(O)cc2)NC(=O)[C@H](CCC(N)=O)NC(=O)[C@H](CCCNC(N)=O)NC(=O)[C@@H](NC(=O)CCC(C)C)CSSC[C@@H](C(N)=O)NC(=O)[C@H](CC(C)C)NC1=O [UPAR-221, iHex-[Cys-Cit-Gln-Tyr-Ocf-Pro-ala-Ile-Leu-Cys]-NH2] ({Pentanoyl(4-Me)}-C[Cit]QY[Phe(2-Cl)]P[dA]ILC-NH2; disulfide 1-10)
IC50 [1]: ≤ 0.01 µM | Kd [2]: < 0.00158 µM

CCCCC(=O)N[C@H]1CSSC[C@@H](C(N)=O)NC(=O)[C@H](CCC)NC(=O)[C@H]([C@@H](C)CC)NC(=O)[C@@H]2C[C@@H](O)CN2C(=O)[C@@H]2CCCN2C(=O)[C@H](Cc2ccncc2)NC(=O)[C@H](Cc2ccc(O)cc2)NC(=O)[C@H](CCCCNC(=O)CN2CCN(CC(=O)O)CCN(CC(=O)O)CCN(CC(=O)O)CC2)NC(=O)[C@H](CCCNC(N)=O)NC1=O [UPAR-222, Pent-[Cys-Cit-Lys(DOTA)-Tyr-Ppa-Pro-Hyp-Ile-Nva-Cys]-NH2] (Pentanoyl-C[Cit]K(DOTA)Y[4Pal]P[Hyp]I[Nva]C-NH2; disulfide 1-10)
IC50 [1]: ≤ 0.01 µM | Kd [2]: 0.00158 to 0.01 µM

CCC[C@@H]1NC(=O)[C@H]([C@@H](C)CC)NC(=O)[C@@H]2C[C@@H](O)CN2C(=O)[C@@H]2CCCN2C(=O)[C@H](Cc2ccccc2)NC(=O)[C@H](Cc2ccc(O)cc2)NC(=O)[C@H](CCC(N)=O)NC(=O)[C@H](CCCNC(=N)N)NC(=O)[C@@H](NC(=O)[C@H](Cc2ccccc2)NC(=O)CN2CCN(CC(=O)O)CCN(CC(=O)O)CCN(CC(=O)O)CC2)CSSC[C@@H](C(N)=O)NC1=O [UPAR-223, DOTA-Phe-[Cys-Arg-Gln-Tyr-Phe-Pro-Hyp-Ile-Nva-Cys]-NH2] ({DOTA}-FCRQYFP[Hyp]I[Nva]C-NH2; disulfide 2-11)
IC50 [1]: 0.0398 to 0.1 µM | Kd [2]: 0.01 to 0.1 µM

CCCCC(=O)N[C@H]1CSSC[C@@H](C(N)=O)NC(=O)[C@H](CCC)NC(=O)[C@H]([C@@H](C)CC)NC(=O)[C@@H]2C[C@@H](O)CN2C(=O)[C@@H]2CCCN2C(=O)[C@H](Cc2ccccc2)NC(=O)[C@H](Cc2ccc(O)cc2)NC(=O)[C@H](CCCCNC(=O)CN2CCN(CC(=O)O)CCN(CC(=O)O)CCN(CC(=O)O)CC2)NC(=O)[C@H](CCCNC(=O)CN(CC(=O)NC(CO)(CO)CO)CC(=O)NC(CO)(CO)CO)NC1=O [UPAR-224, Pent-[Cys-Orn(Tris-Nta(Tris))-Lys(DOTA)-Tyr-Phe-Pro-Hyp-Ile-Nva-Cys]-NH2] (Pentanoyl-C[Orn](X8)K(DOTA)YFP[Hyp]I[Nva]C-NH2; disulfide 1-10)
IC50 [1]: ≤ 0.01 µM | Kd [2]: < 0.00158 µM

CC(C)CCC(=O)N[C@H]1CSSC[C@@H](C(N)=O)NC(=O)[C@H](CC(C)C)NC(=O)[C@H](C2CCCCC2)NC(=O)[C@@H](C)NC(=O)[C@@H]2CCCN2C(=O)[C@H](Cc2ccccc2)NC(=O)[C@H](Cc2ccc(O)cc2)NC(=O)[C@H](CCC(N)=O)NC(=O)[C@H](CCCNC(N)=O)NC1=O [UPAR-225, iHex-[Cys-Cit-Gln-Tyr-Phe-Pro-ala-Chg-Leu-Cys]-NH2] ({Pentanoyl(4-Me)}-C[Cit]QYFP[dA][Chg]LC-NH2; disulfide 1-10)
IC50 [1]: ≤ 0.01 µM | Kd [2]: < 0.00158 µM

CCCCC(=O)N[C@H]1CSSC[C@@H](C(N)=O)NC(=O)[C@H](CCC)NC(=O)[C@H]([C@@H](C)CC)NC(=O)[C@H](Cc2ccc(O)cc2)NC(=O)[C@@H]2CCCN2C(=O)[C@H](Cc2ccccc2)NC(=O)[C@H](Cc2ccc(O)cc2)NC(=O)[C@H](CCC(N)=O)NC(=O)[C@H](CCCNC(=N)N)NC1=O [UPAR-226, Pent-[Cys-Arg-Gln-Tyr-Phe-Pro-Tyr-Ile-Nva-Cys]-NH2] (Pentanoyl-CRQYFPYI[Nva]C-NH2; disulfide 1-10)
IC50 [1]: ≤ 0.01 µM | Kd [2]: < 0.00158 µM

CC[C@H](C)[C@@H]1NC(=O)[C@@H](C)NC(=O)[C@@H]2CCCN2C(=O)[C@H](Cc2cccc(Cl)c2)NC(=O)[C@H](Cc2ccc(O)cc2)NC(=O)[C@H](CCC(N)=O)NC(=O)[C@H](CCCNC(N)=O)NC(=O)[C@@H](NC(=O)CCC(C)C)CSSC[C@@H](C(N)=O)NC(=O)[C@H](CC(C)C)NC1=O [UPAR-227, iHex-[Cys-Cit-Gln-Tyr-Mcf-Pro-ala-Ile-Leu-Cys]-NH2] ({Pentanoyl(4-Me)}-C[Cit]QY[Phe(3-Cl)]P[dA]ILC-NH2; disulfide 1-10)
IC50 [1]: ≤ 0.01 µM | Kd [2]: < 0.00158 µM

CCCCOC(=O)N[C@H]1CSSC[C@@H](C(N)=O)NC(=O)[C@H](CCC)NC(=O)[C@H]([C@@H](C)CC)NC(=O)[C@@H]2C[C@@H](O)CN2C(=O)[C@@H]2C[C@H](F)CN2C(=O)[C@H](Cc2ccccc2)NC(=O)[C@H](Cc2ccc(O)cc2)NC(=O)[C@H](CCNC(=O)CN2CCN(CC(=O)O)CCN(CC(=O)O)CCN(CC(=O)O)CC2)NC(=O)[C@H]([C@@H](C)O)NC1=O [UPAR-228, Butoc-[Cys-Thr-Dab(DOTA)-Tyr-Phe-4Cfp-Hyp-Ile-Nva-Cys]-NH2] (Butoxycarbonyl-CT[Dab](DOTA)YF[Pro(cis-4-F)][Hyp]I[Nva]C-NH2; disulfide 1-10)
IC50 [1]: ≤ 0.01 µM | Kd [2]: < 0.00158 µM

CCCC[C@@H]1NC(=O)[C@H](CCCNC(=N)N)NC(=O)[C@@H](NC(=O)[C@H](CC(C)C)NC(=O)[C@H](CC(=O)O)NC(C)=O)CSSC[C@@H](C(N)=O)NC(=O)[C@H](CC(C)C)NC(=O)[C@H]([C@@H](C)CC)NC(=O)[C@H](C)NC(=O)[C@@H]2CCCN2C(=O)[C@@H](Cc2ccccc2)NC(=O)[C@H](Cc2ccc(O)cc2)NC1=O [UPAR-230, Ac-Asp-Leu-[Cys-Arg-Nle-Tyr-phe-Pro-Ala-Ile-Leu-Cys]-NH2] (Ac-DLCR[Nle]Y[dF]PAILC-NH2; disulfide 3-12)
IC50 [1]: ≥ 0.126 µM | Kd [2]: > 0.1 µM
